Source: US20250262298A1, “STING MODULATOR COMPOUNDS WITH SULFAMATE LINKAGES, AND METHODS OF MAKING AND USING” (TAKEDA PHARMACEUTICAL COMPANY LIMITED, priority 2018, published 2025)

Tests used:
[1] = tested on: THP1-Dual cells (Lucia luciferase under ISG54 promoter); assay: THP-1 Dual Lucia reporter gene assay; type: cell-based, human; conditions: luminescence signal induction, 20 hours at 37° C.
Protocol: THP1-Dual™ cells (InvivoGen #thpd-nfis) were derived from the human THP-1 monocyte cell line by stable integration of the Lucia luciferase gene, a secreted luciferase reporter gene, under the control of an ISG54 (interferon-stimulated gene) minimal promoter in conjunction with five interferon (IFN)-stimulated response elements. On the day of experiment, the cells were plated to a black, 384-well plate (Corning 356697) at 7500 cells/25 μl per well density in growth media (RPMI 1640, 2 mM L-glutamine, 25 mM HEPES, 10% heat-inactivated fetal bovine serum, 100 μg/mL Normocin™, 50 U/mL-50 μg/mL Pen-Strep, 10 μg/mL of blasticidin, and 100 μg/mL of Zeocin). The cell plates were dosed with 62.5 nL of the testing compounds, and then incubated at 37° C. for 20 hours. At the end of the incubation, 15 μL/well of the QUANTI-Luc™ (InvivoGen #rep-qlc1) were added, and luminescence was measured immediately using the LeadSeeker.
For the assay method described above, test compound percent luminescence signal induction, at various concentrations, was calculated relative to untreated and DMSO only treated samples. Compound concentration versus percent signal induction curves were fitted to generate EC50 values. One skilled in the art will appreciate that the values generated as EC50 values are subject to experimental variation.

Human STING = Human STING (Homo sapiens (Human), UniProt Q86WV6, H232R); assay: Human STING TR-FRET assay; type: binding; conditions: human STING residues 140-379 (H232R), 100 nM; fluorescein labeled ligand 100 nM; 60 minutes at rt
Protocol: Human STING (accession number GB:BC047779) DNA encoding residues 140-379 (H232R) was cloned into pET28 as N-terminal HIS and C-terminal Avi tagged fusion protein, and a rTEV cleavage site between HIS tag and STING. The sequence was verified before recombinant protein expression using E. coli expression system.
For expression, STING expression vector was transformed into BL21(DE3) cells. The expression was induced by adding IPTG and expressing in 16° C. for 20 hours.
For purification, STING was purified by Nickel affinity resin (Thermo Scientific #25215), followed by TEV enzyme cleavage and Superdex 200 column (GE Healthcare #28-9893-35) purification. For site directed in vitro biotinylation, purified Avi-tagged STING protein was incubated with Biotin (SUPELCO #47868), ATP (SIGMA #A-7699) and BirA enzyme, followed by further purification through a Superdex 200 column (GE Healthcare #28-9893-35). Biotinylation was confirmed by Mass Spectrometry analysis.
40 nL of test compounds in DMSO were added to wells in a white, 384 well microtitre plate (Greiner 784075). 2 uL STING assay buffer (PBS and 0.01% BSA) containing fluorescein labeled ligand (c[G(2′,5′)p-2′-Fluo-AHC-A(3′,5′)p]-Biolog C 195, 100 nM final) and Tb labeled Streptavidin (Streptavidin-Tb cryptate-CisBio 610SATLB) were added. Then 2 uL STING assay buffer containing STING protein (100 nM final) was added and the mixture was incubated at rt for 60 minutes. The plates were then read on a BMG PheraStar Plus reader (LanthaScreen module).
For the assay method described above, test compound percent inhibition, at various concentrations, was calculated relative to untreated and DMSO only treated samples. Compound concentration versus percent inhibition curves were fitted to generate IC50 values. One skilled in the art will appreciate that the values generated either as percentage inhibition at a single concentration or IC50 values are subject to experimental variation.

Human STING, sequence (Q86WV6 140-379 H232R): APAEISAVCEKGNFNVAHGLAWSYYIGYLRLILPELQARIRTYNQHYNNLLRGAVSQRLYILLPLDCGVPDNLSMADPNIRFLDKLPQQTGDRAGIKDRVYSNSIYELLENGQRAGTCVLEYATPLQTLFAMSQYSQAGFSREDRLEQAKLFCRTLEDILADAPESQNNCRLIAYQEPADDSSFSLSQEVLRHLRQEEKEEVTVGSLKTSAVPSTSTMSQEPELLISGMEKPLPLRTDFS

## Nc1nc2c(ncn2[C@@H]2O[C@@H]3COP(=O)(S)O[C@H]4[C@@H](F)[C@H](n5cnc6cncnc65)O[C@@H]4CNS(=O)(=O)O[C@@H]2C3)c(=O)[nH]1 (single isomer, unassigned) [Compound I-11b]
[1]
  EC50: < 1 µM

## Nc1nc2c(ncn2[C@@H]2O[C@@H]3COS(=O)(=O)N[C@H]4[C@@H](F)[C@H](n5cnc6c(N)ncnc65)O[C@@H]4COP(=O)(S)O[C@@H]2C3)c(=O)[nH]1 (single isomer, unassigned) [Compound I-17]
[1]; Homo sapiens, THP1-Dual, 20 h
  EC50: < 1 µM
Human STING
  IC50: < 1 µM

## Nc1nc2c(ncn2[C@@H]2O[C@@H]3CNS(=O)(=O)O[C@H]4C[C@H](n5cnc6c(N)ncnc65)O[C@@H]4COP(=O)(O)O[C@@H]2C3)c(=O)[nH]1 [Compound I-9, 2-amino-9-[(5S,7R,8R,12aR,14R,15aS)-14-(6-amino-9H-purin-9-yl)-10-hydroxy-2,2,10-trioxidooctahydro-3H,12H-5,8-methanofuro[3,2-l][1,3,6,11,10,9,2]tetraoxathiazaphosphacyclotetradecin-7-yl]-1,9-dihydro-6H-purin-6-one]
[1]; Homo sapiens, THP1-Dual, 20 h
  EC50: > 25 µM
Human STING
  IC50: 10 to 100 µM

## Nc1nc2c(ncn2[C@@H]2O[C@@H]3COP(=O)(S)O[C@H]4[C@@H](F)[C@H](n5cnc6cncnc65)O[C@@H]4CNS(=O)(=O)O[C@@H]2[C@@H]3OCC(F)(F)F)c(=O)[nH]1 (single isomer, unassigned) [Compound I-13b]
[1]
  EC50: < 1 µM
Human STING
  IC50: < 1 µM

## Nc1nc2c(ncn2[C@@H]2O[C@@H]3CO[P@](=O)(S)O[C@@H]4[C@@H](CNS(=O)(=O)O[C@@H]2C3)C[C@@H](n2cnc3cncnc32)[C@@H]4F)c(=O)[nH]1 (single isomer, unassigned) [Compound I-14]
[1]
  EC50: < 1 µM
Human STING
  IC50: < 1 µM

## Nc1nc2c(ncn2[C@@H]2O[C@@H]3COP(=O)(S)O[C@H]4C[C@H](n5cnc6cncnc65)C[C@@H]4CNS(=O)(=O)O[C@@H]2C3)c(=O)[nH]1 (single isomer, unassigned) [Compound I-8]
[1]; Homo sapiens, THP1-Dual, 20 h
  EC50: 1 to 10 µM
Human STING
  IC50: 1 to 10 µM

## Nc1nc2c(ncn2[C@@H]2O[C@@H]3COS(=O)(=O)N[C@H]4C[C@H](n5cnc6c(N)ncnc65)O[C@@H]4COP(=O)(S)O[C@@H]2C3)c(=O)[nH]1 (single isomer, unassigned) [Compound I-12b]
[1]; Homo sapiens, THP1-Dual, 20 h
  EC50: > 25 µM
Human STING
  IC50: 1 to 10 µM

## Nc1nc2c(ncn2[C@@H]2O[C@@H]3COS(=O)(=O)N[C@H]4C[C@H](n5cnc6c(N)ncnc65)O[C@@H]4COP(=O)(S)O[C@@H]2C3)c(=O)[nH]1 (single isomer, unassigned) [Compound I-12a]
[1]; Homo sapiens, THP1-Dual, 20 h
  EC50: < 1 µM
Human STING
  IC50: < 1 µM

## Nc1nc2c(ncn2[C@@H]2O[C@@H]3COP(=O)(S)O[C@H]4C[C@H](n5nnc6cncnc65)C[C@@H]4CNS(=O)(=O)O[C@@H]2C3)c(=O)[nH]1 (single isomer, unassigned) [Compound I-7]
[1]; Homo sapiens, THP1-Dual, 20 h
  EC50: > 25 µM
Human STING
  IC50: 10 to 100 µM

## Nc1nc2c(ncn2[C@@H]2O[C@@H]3COP(=O)(S)O[C@H]4[C@@H](F)[C@H](n5cnc6c(N)ncnc65)O[C@@H]4CNS(=O)(=O)O[C@@H]2[C@@H]3F)c(=O)[nH]1 (single isomer, unassigned) [Compound I-16]
[1]; Homo sapiens, THP1-Dual, 20 h
  EC50: < 1 µM
Human STING
  IC50: < 1 µM

## Nc1nc2c(ncn2[C@@H]2O[C@@H]3CNS(=O)(=O)O[C@H]4C[C@H](n5cnc6c(N)ncnc65)O[C@@H]4COP(=O)(S)O[C@@H]2C3)c(=O)[nH]1 (single isomer, unassigned) [Compound I-2a]
[1]
  EC50: > 25 µM
Human STING
  IC50: > 100 µM

## Nc1nc2c(ncn2[C@@H]2O[C@@H]3COP(=O)(S)O[C@H]4[C@@H](F)[C@H](n5cnc6c(N)ncnc65)O[C@@H]4CNS(=O)(=O)O[C@@H]2C3)c(=O)[nH]1 (single isomer, unassigned) [Compound I-4a]
[1]; Homo sapiens, THP1-Dual, 20 h
  EC50: < 1 µM
Human STING
  IC50: < 1 µM

## Cn1cc([C@@H]2O[C@@H]3CNS(=O)(=O)O[C@@H]4C[C@@H](COP(=O)(S)O[C@H]3[C@H]2F)O[C@H]4n2cnc3c(=O)[nH]c(N)nc32)c2ncnc(N)c21 (single isomer, unassigned) [Compound I-19]
[1]; Homo sapiens, THP1-Dual, 20 h
  EC50: > 25 µM
Human STING
  IC50: 1 to 10 µM

## Nc1nc2c(ncn2[C@@H]2O[C@@H]3COP(=O)(S)O[C@H]4[C@@H](F)[C@H](n5cnc6cncnc65)O[C@@H]4CNS(=O)(=O)O[C@@H]2C3)c(=O)[nH]1 (single isomer, unassigned) [Compound I-11a]
[1]; Homo sapiens, THP1-Dual, 20 h
  EC50: < 1 µM
Human STING
  IC50: < 1 µM

## Nc1nc2c(ncn2[C@@H]2O[C@@H]3COP(=O)(O)O[C@H]4C[C@H](n5cnc6c(N)ncnc65)O[C@@H]4CNS(=O)(=O)O[C@@H]2C3)c(=O)[nH]1 [Compound I-5, 2-amino-9-[(5S,7R,8R,12aR,14R,15aS)-14-(6-amino-9H-purin-9-yl)-2-hydroxy-2,10,10-trioxidodecahydro-5,8-methanofuro[2,3-m][1,3,6,9,10,11,2]tetraoxathiazaphosphacyclotetradecin-7-yl]-1,9-dihydro-6H-purin-6-one]
[1]; Homo sapiens, THP1-Dual, 20 h
  EC50: < 1 µM
Human STING
  IC50: 1 to 10 µM

## Nc1nc2c(ncn2[C@@H]2O[C@@H]3COP(=O)(S)O[C@H]4[C@@H](F)[C@H](n5cnc6c(=O)[nH]cnc65)O[C@@H]4CNS(=O)(=O)O[C@@H]2C3)c(=O)[nH]1 (single isomer, unassigned) [Compound I-15]
[1]; Homo sapiens, THP1-Dual, 20 h
  EC50: < 1 µM

## Nc1nc2c(ncn2[C@@H]2O[C@@H]3COP(=O)(S)O[C@H]4[C@@H](F)[C@H](n5cnc6cncnc65)O[C@@H]4CNS(=O)(=O)O[C@@H]2[C@@H]3F)c(=O)[nH]1 (single isomer, unassigned) [Compound I-10]
[1]; Homo sapiens, THP1-Dual, 20 h
  EC50: < 1 µM
Human STING
  IC50: < 1 µM

## Nc1nc2c(ncn2[C@@H]2O[C@@H]3CNS(=O)(=O)O[C@H]4C[C@H](n5cnc6c(N)ncnc65)O[C@@H]4COP(=O)(S)O[C@@H]2C3)c(=O)[nH]1 (single isomer, unassigned) [Compound I-2b]
[1]
  EC50: 10 to 25 µM
Human STING
  IC50: 10 to 100 µM

## Nc1nc2c(ncn2[C@@H]2O[C@@H]3COP(=O)(O)O[C@H]4[C@@H](F)[C@H](n5cnc6c(N)ncnc65)O[C@@H]4CNS(=O)(=O)O[C@@H]2C3)c(=O)[nH]1 [Compound I-18, 2-amino-9-[(5S,7R,8R,12aR,14R,15R,15aR)-14-(6-amino-9H-purin-9-yl)-15-fluoro-2-hydroxy-2,10,10-trioxidodecahydro-5,8-methanofuro[2,3-m][1,3,6,9,10,11,2]tetraoxathiazaphosphacyclotetradecin-7-yl]-1,9-dihydro-6H-purin-6-one]
[1]; Homo sapiens, THP1-Dual, 20 h
  EC50: 1 to 10 µM
Human STING
  IC50: < 1 µM

## Nc1nc2c(ncn2[C@@H]2O[C@@H]3CNS(=O)(=O)O[C@H]4C[C@H](n5cnc6cncnc65)C[C@@H]4COP(=O)(S)O[C@@H]2C3)c(=O)[nH]1 (single isomer, unassigned) [Compound I-6]
[1]; Homo sapiens, THP1-Dual, 20 h
  EC50: > 25 µM
Human STING
  IC50: > 100 µM

## Nc1ncnc2c1ncn2[C@@H]1O[C@@H]2CNS(=O)(=O)O[C@@H]3C[C@@H](COP(=O)(S)O[C@H]2[C@H]1F)O[C@H]3n1cc(F)c2c(=O)[nH]cnc21 (single isomer, unassigned) [Compound I-20]
[1]; Homo sapiens, THP1-Dual, 20 h
  EC50: 1 to 10 µM
Human STING
  IC50: < 1 µM

## Nc1nc2c(ncn2[C@@H]2O[C@@H]3COP(=O)(S)O[C@H]4[C@@H](F)[C@H](n5cnc6c(N)ncnc65)O[C@@H]4CNS(=O)(=O)O[C@@H]2C3)c(=O)[nH]1 (single isomer, unassigned) [Compound I-4b]
[1]
  EC50: < 1 µM
Human STING
  IC50: < 1 µM

## Nc1nc2c(ncn2[C@@H]2O[C@@H]3COP(=O)(S)O[C@H]4C[C@H](Oc5ccncn5)C[C@@H]4CNS(=O)(=O)O[C@@H]2C3)c(=O)[nH]1 (single isomer, unassigned) [Compound I-1]
[1]; Homo sapiens, THP1-Dual, 20 h
  EC50: > 25 µM

## Nc1nc2c(ncn2[C@@H]2O[C@@H]3COP(=O)(S)O[C@H]4[C@@H](F)[C@H](n5cnc6cncnc65)O[C@@H]4CNS(=O)(=O)O[C@@H]2[C@@H]3OCC(F)(F)F)c(=O)[nH]1 (single isomer, unassigned) [Compound I-13a]
[1]; Homo sapiens, THP1-Dual, 20 h
  EC50: < 1 µM
Human STING
  IC50: < 1 µM
